Holding throughout (format): cell-based
The target in series [1] is T1, hERG (Homo sapiens, UniProt Q12809). Kind of series: hERG pIC50 assay (QPatch automated patch clamp, CHO cells, 1, 3, 10 and 30 μM). The following applies: CHO cells expressing hERG, 1-30 μM, ≤4.0 = fails to reach >40% block at 30 μM. An excerpt: (§1) Series resistance (4-15 MΩ) was compensated by >80%.
Series [2] has as its target T2, human H4 receptor (Homo sapiens, UniProt Q9H3N8).
T2 construct: expressed in transfected cells; host or cells: HEKf cells infected with baculovirus
Nature of the series: H4 Antagonist Functional cAMP Gi Assay. The following applies: HEKf cells expressing human H4 receptor; functional antagonist pKb by Cheng-Prusoff vs histamine; read-out: Human H4 cAMP fpKb (converted). The gist of the method: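 Baculovirus-transduced HEKf cells in HBSS with 500 nM IBMX were stimulated with 1 μM forskolin, incubated 30 min with test compounds, and cAMP was then read by HTRF after 60 min detection at room temperature. EC50 values came from 4-parameter logistic fits; pKb was derived by Cheng-Prusoff.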

Series [3] deals with T2, human H4 receptor. Kind of series: H4 Antagonist Functional Dynamic Mass Redistribution Assay. To be noted: HEKf cells expressing human H4 receptor; functional antagonist pKb by Cheng-Prusoff vs histamine EC80; read-out: Human H4 DMR fpKb (converted). On the procedure: HEKf cells were infected using baculovirus expressing the human H4 receptor, plated into fibronectin-coated EPIC plates at a density of 10,000 cells/well and incubated overnight at 37° C. The medium on cells was changed to 30 μL HBSS with 20 mM HEPES per well and 30 nL DMSO were added per well by LabCyte ECHO acoustic dispensing. Following 2 h equilibration at room temperature, 30 nL of H4 ligands prepared in DMSO were stamped by LabCyte ECHO acoustic dispensing into seeded EPIC plates and cellular dynamic mass redistribution was monitored using a Corning EPIC plate reader. Following 45 min measurement, 30 nL/well of histamine EC80 was added and monitored to obtain antagonist assay data. Maximum baseline-corrected responses in pm were used to generate concentration response curves. EC50 values were generated using a 4-parameter logistical fit equation to quantify agonist potencies. Functional antagonist affinity values were generated using the Cheng-Prusoff equation to calculate a pKb value using the antagonist assay data.

Series [4] deals with T1, hERG. Nature of the series: hERG single-concentration assay (QPatch automated patch clamp, CHO cells, 30 μM). The following applies: CHO cells stably expressing hERG.
From the text: as §1
(In general: hERG is a cardiac potassium channel; its block is linked to QT prolongation.)

Bounds are passed on as bounds.

As usually defined, the IC50 is the concentration that gives 50% inhibition. A high value points to lower potency. Usually inhibition stands for the change of the read-out against control, counted positive when it falls. A higher inhibition goes with a response far below the control.

T2 sequence (Q9H3N8 whole entry): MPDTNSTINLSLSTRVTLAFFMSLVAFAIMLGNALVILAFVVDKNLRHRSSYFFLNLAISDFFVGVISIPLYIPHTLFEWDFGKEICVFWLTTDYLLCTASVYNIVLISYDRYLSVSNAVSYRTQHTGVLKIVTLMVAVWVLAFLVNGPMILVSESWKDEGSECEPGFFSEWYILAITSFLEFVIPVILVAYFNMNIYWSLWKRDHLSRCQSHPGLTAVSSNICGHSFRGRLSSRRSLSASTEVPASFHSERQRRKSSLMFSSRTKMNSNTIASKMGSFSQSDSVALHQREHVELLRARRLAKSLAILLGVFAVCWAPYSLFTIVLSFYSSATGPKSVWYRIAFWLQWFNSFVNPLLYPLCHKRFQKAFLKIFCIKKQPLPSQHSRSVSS
T1 sequence (Q12809 whole entry): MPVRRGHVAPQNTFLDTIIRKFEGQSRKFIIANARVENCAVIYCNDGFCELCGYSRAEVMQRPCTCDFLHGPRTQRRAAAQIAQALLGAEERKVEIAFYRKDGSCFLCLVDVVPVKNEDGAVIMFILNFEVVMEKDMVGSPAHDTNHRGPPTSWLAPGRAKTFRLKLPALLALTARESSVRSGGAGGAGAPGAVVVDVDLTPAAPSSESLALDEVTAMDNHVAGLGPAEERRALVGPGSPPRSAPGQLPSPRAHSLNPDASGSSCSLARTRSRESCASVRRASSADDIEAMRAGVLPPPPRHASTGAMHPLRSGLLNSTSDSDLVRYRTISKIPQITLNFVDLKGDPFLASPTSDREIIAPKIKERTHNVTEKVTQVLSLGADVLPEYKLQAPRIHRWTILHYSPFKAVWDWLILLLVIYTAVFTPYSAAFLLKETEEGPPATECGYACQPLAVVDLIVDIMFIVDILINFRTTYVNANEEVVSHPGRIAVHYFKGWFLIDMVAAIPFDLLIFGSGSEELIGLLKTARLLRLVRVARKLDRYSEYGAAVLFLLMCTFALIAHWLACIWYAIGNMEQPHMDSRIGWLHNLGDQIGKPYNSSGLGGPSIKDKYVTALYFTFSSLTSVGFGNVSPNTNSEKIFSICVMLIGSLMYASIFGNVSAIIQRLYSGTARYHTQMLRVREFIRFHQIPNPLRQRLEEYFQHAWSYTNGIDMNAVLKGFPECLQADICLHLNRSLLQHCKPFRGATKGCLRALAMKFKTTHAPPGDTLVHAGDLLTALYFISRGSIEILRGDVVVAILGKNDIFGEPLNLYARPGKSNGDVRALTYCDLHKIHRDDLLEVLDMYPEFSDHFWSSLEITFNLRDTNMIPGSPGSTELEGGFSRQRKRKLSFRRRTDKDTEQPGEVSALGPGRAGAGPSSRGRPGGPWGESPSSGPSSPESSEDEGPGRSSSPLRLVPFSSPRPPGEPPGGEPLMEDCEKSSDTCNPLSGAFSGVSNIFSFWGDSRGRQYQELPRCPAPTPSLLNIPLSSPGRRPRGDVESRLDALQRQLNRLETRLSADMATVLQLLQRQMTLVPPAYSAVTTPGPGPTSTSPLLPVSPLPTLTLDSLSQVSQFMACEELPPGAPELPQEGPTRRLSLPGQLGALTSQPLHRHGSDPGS

On hERG [1], `CC(C)[C@@H]1CCOc2c(nc(N)nc2N2CC[C@@H](N)C2)N1` [Example 12-1, (S)-4-((R)-3-Aminopyrrolidin-1-yl)-8-isopropyl-6,7,8,9-tetrahydropyrimido[5,4-b][1,4]oxazepin-2-amine] gave an IC50 of at least 100000 nM. The figures for the Kb at human H4 receptor [2] and at human H4 receptor [3] were 0.631 nM and 2.51 nM, respectively.

In the case of `CC[C@@H]1CCOc2c(nc(N)nc2N2CC[C@@H](NC)C2)N1` [Example 11-4, (R)-8-Ethyl-4-((R)-3-(methylamino)pyrrolidin-1-yl)-6,7,8,9-tetrahydropyrimido[5,4-b][1,4]oxazepin-2-amine], the half-maximal inhibitory concentration (IC50) at hERG [1] is at least 100000 nM. On hERG [4], this compound came in with an inhibition at 30 µM of 39%. Moreover, the Kb at human H4 receptor [2] was 0.631 nM; on human H4 receptor [3], 1.26 nM.

In the case of `CNC1CN(c2nc(N)nc3c2OCC[C@@H](C(C)C)N3)C1` [Example 13-1, (S)-8-Isopropyl-4-(3-(methylamino)azetidin-1-yl)-6,7,8,9-tetrahydropyrimido[5,4-b][1,4]oxazepin-2-amine], the IC50 at hERG [1] is at least 100000 nM. At hERG [4], this compound had an inhibition at 30 µM of 15%. Also, the Kb at human H4 receptor [2] is 1 nM; at human H4 receptor [3] it was 1.58 nM.
